Test results as given in PubChem BioAssay (NCI).
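Values below derive from 48-hour exposures of cells grown in 96-well plates, with endpoints linearly interpolated between the two concentrations bracketing the appropriate inhibition level. At the GI50, growth is halved. At the TGI there is no net growth.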

Columns and labels:
Assay in all cases: NCI-60 cell line screen, 48 h
EKVX NSCLC = system: EKVX NSCLC
SW-620 colon = system: SW-620 colon
HT29 colon = system: HT29 colon
OVCAR-8 ovarian = system: OVCAR-8 ovarian
SK-OV-3 ovarian = system: SK-OV-3 ovarian
786-0 renal = system: 786-0 renal
SNB-19 CNS = system: SNB-19 CNS
HCC-2998 colon = system: HCC-2998 colon
SK-MEL-28 melanoma = system: SK-MEL-28 melanoma
SK-MEL-2 melanoma = system: SK-MEL-2 melanoma

| Compound | TGI (EKVX NSCLC) [µM] | TGI (SW-620 colon) [µM] | TGI (HT29 colon) [µM] | TGI (OVCAR-8 ovarian) [µM] | TGI (SK-OV-3 ovarian) [µM] | TGI (786-0 renal) [µM] | TGI (SNB-19 CNS) [µM] | TGI (HCC-2998 colon) [µM] | TGI (SK-MEL-28 melanoma) [µM] | TGI (SK-MEL-2 melanoma) [µM] | GI50 (EKVX NSCLC) [µM] | GI50 (SW-620 colon) [nM] | GI50 (HT29 colon) [nM] | GI50 (OVCAR-8 ovarian) [µM] | GI50 (HCC-2998 colon) [µM] | GI50 (SK-OV-3 ovarian) [µM] | GI50 (SK-MEL-28 melanoma) [µM] | GI50 (SK-MEL-2 melanoma) [µM] | GI50 (SNB-19 CNS) [µM] |
| --- | --- | --- | --- | --- | --- | --- | --- | --- | --- | --- | --- | --- | --- | --- | --- | --- | --- | --- | --- |
| CCc1cc2c(oc3c4ccccc4ccc23)c(=O)[nH]1 | > 10 | > 10 | > 10 | > 10 | > 10 | > 10 | > 10 | – | – | – | – | – | – | – | – | – | – | – | – |
| Clc1ccc(-c2nn3c(C45CC6CC(CC(C6)C4)C5)nnc3s2)cc1 | > 100 | > 100 | > 100 | – | > 100 | > 100 | > 100 | > 100 | > 100 | > 100 | – | – | – | – | – | – | – | – | – |
| CCCC1C(C#N)(C#N)C(C#N)=C(N)C1(C)C(C)=O (stereo not given) | > 100 | > 100 | > 100 | > 100 | > 100 | > 100 | > 100 | > 100 | – | > 100 | – | – | – | – | – | – | – | – | – |
| CCCN(CCC)c1c([N+](=O)[O-])cc(C(=O)N(C)C)cc1[N+](=O)[O-] | > 100 | – | > 100 | > 100 | > 100 | > 100 | – | > 100 | > 100 | > 100 | – | – | – | – | – | – | – | – | – |
| Cc1ccc(NC(=O)CC(=O)N2N=C(c3ccccc3)C(N=Nc3ccc(S(=O)(=O)CCOS(=O)(=O)O)cc3)C2=O)cc1 (stereo not given) | > 100 | > 100 | > 100 | > 100 | – | > 100 | > 100 | > 100 | > 100 | > 100 | – | – | – | – | – | – | – | – | – |
| C/C(=N\n1c(Cc2ccccc2)n[nH]c1=O)c1ccc([N+](=O)[O-])cc1 | > 100 | > 100 | > 100 | > 100 | – | > 100 | > 100 | – | > 100 | > 100 | – | – | – | – | – | – | – | – | – |
| CC(C)(Oc1ccc(C(=O)c2ccc(Cl)cc2)cc1Cl)C(=O)N1CCN(c2ccccc2)CC1 | > 100 | > 100 | > 100 | > 100 | > 100 | > 100 | > 100 | – | > 100 | > 100 | – | – | – | – | – | – | – | – | – |
| NC(CNc1ccc(O)cc1)C(=O)O (stereo not given) | > 100 | > 100 | > 100 | > 100 | > 100 | 30.2 | > 100 | – | > 100 | > 100 | – | – | – | – | – | – | – | – | – |
| CN(/N=C/c1ccc(Cl)c(Cl)c1)C1=NCCN1 | > 100 | 54.4 | > 100 | > 100 | 81.8 | 34.2 | > 100 | 75.2 | – | 43.6 | – | – | – | – | – | – | – | – | – |
| N#CI1OC(C(F)(F)F)(C(F)(F)F)c2ccccc21 | 30.1 | – | 40.8 | 30.5 | > 100 | 27.2 | – | 36.1 | 37.4 | 30.5 | – | – | – | – | – | – | – | – | – |
| O=[N+]([O-])c1ccc(Cl)cc1N/N=C/c1cccs1 | > 100 | > 100 | > 100 | > 100 | > 100 | > 100 | > 100 | > 100 | > 100 | – | – | – | – | – | – | – | – | – | – |
| COC1CCC(n2c([C@@H]3CCCC(=O)N3c3ccc(F)c(F)c3)nc3cc(-c4c(C)noc4C)ccc32)CC1 (stereo not given in full) | > 100 | > 100 | 25.2 | 40.8 | 18.8 | – | > 100 | 19.6 | 28.1 | 35.5 | 3.97 | 19100 | 2540 | 10.2 | 4.19 | 4.09 | 11.8 | 11.4 | 9.31 |
| COc1ccc(/C=C/C(c2cc(OC)c(OC)c(OC)c2)n2cncn2)cc1O (stereo not given) | > 100 | > 100 | 17.2 | – | – | – | – | > 100 | > 100 | > 100 | 6.07 | 39.4 | 3680 | – | 3 | – | 3.62 | 0.0438 | – |
| CC1=CC(=O)/C(=C/N2CCNC2=S)C(=O)O1 | > 100 | > 100 | > 100 | > 100 | > 100 | > 100 | > 100 | > 100 | – | > 100 | – | – | – | – | – | – | – | – | – |
| CC(CN(C)C)C(=O)/C=C/c1ccc(Cl)c(Cl)c1 (stereo not given) | 3.11 | 8.42 | – | 2.85 | 17.5 | 2.01 | 19.7 | 3.48 | 16.5 | 4.19 | – | – | – | – | – | – | – | – | – |
| Cc1cnc2[nH]c(-c3cccc(Cl)c3)cc(=O)c2c1 | > 100 | > 100 | – | > 100 | > 100 | > 100 | 41.3 | – | > 100 | 97.4 | – | – | – | – | – | – | – | – | – |
| Clc1cccc(N=C/C=C/Nc2cccc(Cl)c2)c1 | – | 43.9 | 34 | 38.9 | – | 37.4 | – | 25.2 | 29.6 | – | – | – | – | – | – | – | – | – | – |
| C=CCc1cccc2cc(C(=O)Nc3nc(C45CC6CC(CC(C6)C4)C5)cs3)c(=O)oc12 | > 100 | > 100 | > 100 | > 100 | – | 54.6 | 64.2 | > 100 | > 100 | – | – | – | – | – | – | – | – | – | – |
| C/C(=C/c1c(C)[nH]c(=O)[nH]c1=O)C(=O)O | > 1380 | > 1380 | > 1380 | > 1380 | > 1370 | – | > 1370 | > 1380 | > 1380 | > 1380 | 1030 | – | – | > 1380 | – | – | – | > 1380 | – |
| Cc1nn(-c2ccccc2)c2c1N=C(C(=O)O)CC(c1ccccc1)=N2 | – | > 10 | > 10 | > 10 | > 10 | > 10 | > 10 | > 10 | > 10 | – | – | – | – | – | – | – | – | – | – |
| CCCCNCC(O)c1cc(-c2ccc(C(F)(F)F)cc2)nc(-c2ccc(C(F)(F)F)cc2)c1 (stereo not given) | – | 2.96 | 3.62 | – | – | – | – | – | 3.81 | 4.33 | – | 1260 | 1840 | – | – | – | 2.08 | 2.46 | – |
| CC(=O)C(C(=O)C(C)(C)C)C(=O)C(C)(C)C | – | > 100 | – | > 100 | > 100 | > 100 | > 100 | > 100 | > 100 | > 100 | – | – | – | – | – | – | – | – | – |
